According to patent US8148422B2, “Sulfonamides as TRPM8 modulators” (Janssen Pharmaceutica, NV, priority 2008, dated 2012):

Target: T1, canine TRPM8 (Canis lupus familiaris, UniProt Q1A7N1)
T1 construct: expressed in transfected cells
Assay: In vitro canine TRPM8 functional assay (Ca2+-sensitive fluorescent dye, FLIPR or FDSS, icilin challenge)
Type: cell-based
Details: HEK293 cells stably expressing canine TRPM8; for inhibition at 0.2 µM: 0.2 μM compound, icilin challenge; for IC50: icilin at approx. 80% maximal response, eight-point dose-response, single determinations unless otherwise noted, read-out: IC50
Procedure: The functional activity of compounds of the formula (I) was determined by measuring changes in intracellular calcium concentration using a Ca^2+-sensitive fluorescent dye. The changes in fluorescent signal were monitored by a fluorescence plate reader, either a FLIPR™ (Molecular Devices) or FDSS (Hamamatsu).
At 24 hrs prior to assay, HEK293 cells stably expressing canine TRPM8 were seeded in culture medium in black wall, clear-base poly-D-lysine coated 384-well plates (BD Biosciences, NJ, USA) and grown overnight in 5% CO2 at 37° C. On assay day, growth media was removed and cells were loaded with Calcium 3 Dye (Molecular Devices) for 35 min at 37° C., under 5% CO2 and then for 25 min at room temperature and atmosphere. Subsequently, cells were tested for agonist-induced increases in intracellular Ca^2+ levels using FLIPR™ or FDSS. Cells were challenged with a compound of the Formula (I) (at varying concentrations) and intracellular Ca^2+ was measured for 5 min prior to the addition of icilin to all wells to achieve a final concentration that produces approximately an 80% maximal response. EC50 or IC50 values for compounds of the present invention were determined from eight-point dose-response studies. Curves were generated using the average of quadruplicate wells for each data point.

T1 sequence (Q1A7N1 1-1104): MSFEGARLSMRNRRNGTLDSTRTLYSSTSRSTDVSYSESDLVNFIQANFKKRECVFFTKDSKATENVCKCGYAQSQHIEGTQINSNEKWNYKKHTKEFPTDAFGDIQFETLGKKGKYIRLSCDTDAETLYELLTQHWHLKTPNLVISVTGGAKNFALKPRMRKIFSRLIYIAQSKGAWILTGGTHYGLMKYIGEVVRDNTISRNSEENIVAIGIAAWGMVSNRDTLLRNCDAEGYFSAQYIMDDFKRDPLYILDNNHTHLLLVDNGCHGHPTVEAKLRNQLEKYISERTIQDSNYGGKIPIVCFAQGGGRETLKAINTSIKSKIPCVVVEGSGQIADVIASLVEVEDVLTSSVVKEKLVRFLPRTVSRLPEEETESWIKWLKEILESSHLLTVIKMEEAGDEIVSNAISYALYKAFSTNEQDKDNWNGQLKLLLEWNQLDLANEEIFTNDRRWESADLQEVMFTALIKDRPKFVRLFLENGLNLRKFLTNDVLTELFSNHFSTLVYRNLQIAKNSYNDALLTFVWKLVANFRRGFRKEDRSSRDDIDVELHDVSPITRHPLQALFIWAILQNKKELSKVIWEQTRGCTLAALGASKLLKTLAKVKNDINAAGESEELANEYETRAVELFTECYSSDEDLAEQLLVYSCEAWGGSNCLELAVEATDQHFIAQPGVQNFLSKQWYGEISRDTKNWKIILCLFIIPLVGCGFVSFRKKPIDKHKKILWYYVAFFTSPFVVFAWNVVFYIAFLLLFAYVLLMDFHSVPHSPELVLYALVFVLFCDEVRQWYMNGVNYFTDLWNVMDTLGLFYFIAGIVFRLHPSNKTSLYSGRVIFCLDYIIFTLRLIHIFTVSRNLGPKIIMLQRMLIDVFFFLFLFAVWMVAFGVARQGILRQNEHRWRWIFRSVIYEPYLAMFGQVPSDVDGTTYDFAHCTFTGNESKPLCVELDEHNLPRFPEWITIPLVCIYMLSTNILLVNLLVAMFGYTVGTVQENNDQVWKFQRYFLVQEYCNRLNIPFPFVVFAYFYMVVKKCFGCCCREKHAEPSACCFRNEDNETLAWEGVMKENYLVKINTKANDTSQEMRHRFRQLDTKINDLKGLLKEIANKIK

SMILES | inhibition at 0.2 µM | IC50
Cc1c(N(Cc2ccc(OC(F)(F)F)cc2)S(=O)(=O)CCN2CCCCC2)sc2ccccc12 [Cpd 18, N-(3-Methylbenzo[b]thiophen-2-yl)-N-(4-trifluoromethoxy-benzyl)-2-(piperidin-1-yl)ethylsulfonamide] | 99% | 26 nM
CCCCN(C)CCS(=O)(=O)N(Cc1ccc(OC(F)(F)F)cc1)c1sc2ccccc2c1C [Cpd 12, N-(3-Methylbenzo[b]thiophen-2-yl)-N-(4-trifluoromethoxy-benzyl)-2-(methyl-butylamino)ethylsulfonamide] | 96% | 43 nM
Cc1c(N(Cc2ccc(F)cc2)S(=O)(=O)CCN(C)Cc2ccccc2)sc2ccccc12 [Cpd 77, N-(3-Methylbenzo[b]thiophen-2-yl)-N-(4-fluoro-benzyl)-2-(benzyl-methylamino)ethylsulfonamide] | 97% | 49 nM
CNCCS(=O)(=O)N(Cc1ccc(OC(F)(F)F)cc1)c1sc2ccccc2c1C [Cpd 48, N-(3-Methylbenzo[b]thiophen-2-yl)-N-(4-trifluoromethoxy-benzyl)-2-(methylamino)ethylsulfonamide] | 24% | –
Cc1c(N(Cc2ccc(OC(F)(F)F)cc2)S(=O)(=O)CCN2CCCC(C(F)(F)F)C2)sc2ccccc12 (stereo not drawn) [Cpd 24, N-(3-Methylbenzo[b]thiophen-2-yl)-N-(4-trifluoromethoxy-benzyl)-2-(3-trifluoromethylpiperidin-1-yl)ethylsulfonamide] | 99% | 27 nM
CCN(CC)CCS(=O)(=O)N(Cc1ccc(OC(F)(F)F)cc1)c1sc2ccccc2c1C [Cpd 9, N-(3-Methylbenzo[b]thiophen-2-yl)-N-(4-trifluoromethoxy-benzyl)-2-(diethylamino)ethylsulfonamide] | 101% | 19 nM
Cc1c(N(Cc2ccc(OC(F)(F)F)cc2)S(=O)(=O)CCN2CCN(c3ccccc3)CC2)sc2ccccc12 [Cpd 30, N-(3-Methylbenzo[b]thiophen-2-yl)-N-(4-trifluoromethoxy-benzyl)-2-(4-phenylpiperazin-1-yl)ethylsulfonamide] | 96% | 33 nM
Cc1c(N(Cc2ccc(OC(F)(F)F)cc2)S(=O)(=O)CCN2CCCC(F)(F)C2)sc2ccccc12 [Cpd 43, N-(3-Methylbenzo[b]thiophen-2-yl)-N-(4-trifluoromethoxy-benzyl)-2-(3,3-difluoropiperidin-1-yl)ethylsulfonamide] | 101% | 5 nM
Cc1c(N(Cc2ccc(OC(F)(F)F)cc2)S(=O)(=O)CCN2CCC(C)CC2)sc2ccccc12 [Cpd 19, N-(3-Methylbenzo[b]thiophen-2-yl)-N-(4-trifluoromethoxy-benzyl)-2-(4-methylpiperidin-1-yl)ethylsulfonamide] | 99% | 34 nM
Cc1c(N(Cc2ccc(OC(F)(F)F)cc2)S(=O)(=O)CCN2CCNC(=O)CC2)sc2ccccc12 [Cpd 31, N-(3-Methylbenzo[b]thiophen-2-yl)-N-(4-trifluoromethoxy-benzyl)-2-(5-oxohomopiperazin-1-yl)ethylsulfonamide] | 99% | 27 nM
CCOC(=O)C1CCN(CCS(=O)(=O)N(CCCCC(F)(F)F)c2sc3ccccc3c2C)CC1 [Cpd 85, N-(3-Methylbenzo[b]thiophen-2-yl)-N-(5,5,5-trifluoropent-1-yl)-2-(4-carboethoxypiperidin-1-yl)ethylsulfonamide] | 77% | 81 nM
CCCCN(CCCC)CCS(=O)(=O)N(Cc1ccc(OC(F)(F)F)cc1)c1ccc2ccccc2c1 [Cpd 56, N-(Naphth-2-yl)-N-(4-trifluoromethoxy-benzyl)-2-(dibutylamino)ethylsulfonamide] | 47% | –
Cc1c(N(Cc2ccc(OC(F)(F)F)cc2)S(=O)(=O)CCN2C[C@@H](C)O[C@@H](C)C2)sc2ccccc12 [Cpd 33, N-(3-Methylbenzo[b]thiophen-2-yl)-N-(4-trifluoromethoxy-benzyl)-2-(cis-2,6-dimethylmorpholin-4-yl)ethylsulfonamide] | 100% | 24 nM
